In patent US3985737A, “3-Sulfonate esters of cephalosporin” (Eli Lilly and Company, priority 1974, dated 1976):
Converted amounts (≈) assume the structure as drawn. Like-named read-outs stand apart in the source and are kept apart here.

What was measured:
Serratia marcescens = assay: Standard Gradient-Plate method, MIC vs. Serratia marcescens; type: cell-based; settings: in vitro, read-out: Minimum Inhibitory Concentration
Excerpt: (§1) The 7-acylamido-3-cephem-3-sulfonate esters of the formula I wherein R1 is hydrogen (the free acid form) are useful antibiotic substances which are useful in combatting infections attributable to gram-positive and gram-negative bacteria and also penicillin resistant staphylococci. The antibacterial activity of these sulfonate esters is illustrated by the following in vitro test data obtained with representative compounds. In Table I below, the minimum inhibitory concentration (MIC) for representative compounds against gram-negative bacteria is presented. The data were obtained by the standard Gradient-Plate method.

Aerobacter aerogenes = assay: Standard Gradient-Plate method, MIC vs. Aerobacter aerogenes; type: cell-based; settings: Klebsiella aerogenes, in vitro, read-out: Minimum Inhibitory Concentration
Excerpt: as §1

Pseudomonas aeruginosa = assay: Standard Gradient-Plate method, MIC vs. Pseudomonas aeruginosa; type: cell-based; settings: in vitro, read-out: Minimum Inhibitory Concentration
Excerpt: as §1

Salmonella heidelberg = assay: Standard Gradient-Plate method, MIC vs. Salmonella heidelberg; type: cell-based; settings: Salmonella enterica, in vitro, read-out: Minimum Inhibitory Concentration
Excerpt: as §1

Escherichia coli = assay: Standard Gradient-Plate method, MIC vs. Escherichia coli; type: cell-based; settings: in vitro, read-out: Minimum Inhibitory Concentration
Excerpt: as §1

Electrometric titration = type: physicochemical; settings: 80% aqueous methyl cellosolve, 80 percent aqueous methyl cellosolve
Excerpt: Electrometric titration (80 percent aqueous methyl cellosolve) pKa 3.9.
Electrometric titration in 80 percent aqueous methyl cellosolve pKa 4.15.
Electrometric titration in 80 percent aqueous methyl cellosolve pKa 4.75.
Electrometric titration (80 percent aqueous methyl cellosolve) pKa 4.4.
Electrometric titration (80 percent aqueous methyl cellosolve) pKa 4.25.

Klebsiella pneumoniae = assay: Standard Gradient-Plate method, MIC vs. Klebsiella pneumoniae; type: cell-based; settings: in vitro, read-out: Minimum Inhibitory Concentration
Excerpt: as §1

Shigella sp. = assay: Standard Gradient-Plate method, MIC vs. Shigella sp.; type: cell-based; settings: in vitro, read-out: Minimum Inhibitory Concentration
Excerpt: as §1

SMILES: CS(=O)(=O)OC1=C(C(=O)O)N2C(=O)C(NC(=O)Cc3cccs3)[C@H]2SC1 (stereo partly shown) [Compound 1, 7-[2-(2-thienyl)acetamido]-3-methylsulfonyloxy-3-cephem-4-carboxylic acid]
- MIC (Serratia marcescens): 110 µg/mL (≈ 263 µM)
- MIC (Aerobacter aerogenes): 3.5 µg/mL (≈ 8.36 µM)
- MIC (Pseudomonas aeruginosa): > 200 µg/mL
- MIC (Salmonella heidelberg): 2 µg/mL (≈ 4.78 µM)
- MIC (Escherichia coli): 11 µg/mL (≈ 26.3 µM)
- pKa (Electrometric titration; read-out: pKa): 3.9
- MIC (Klebsiella pneumoniae): 6.5 µg/mL (≈ 15.5 µM)
- MIC (Shigella sp.): 10.7 µg/mL (≈ 25.6 µM)

SMILES: CCS(=O)(=O)OC1=C(C(=O)O)N2C(=O)C(NC(=O)Cc3cccs3)[C@H]2SC1 (stereo partly shown) [Compound 2, 7-[2-(2-thienyl)acetamido]-3-ethylsulfonyloxy-3-cephem-4-carboxylic acid]
- MIC (Serratia marcescens): 120 µg/mL (≈ 277 µM)
- MIC (Aerobacter aerogenes): 3.5 µg/mL (≈ 8.09 µM)
- MIC (Pseudomonas aeruginosa): > 200 µg/mL
- MIC (Salmonella heidelberg): 4 µg/mL (≈ 9.25 µM)
- MIC (Escherichia coli): 13.1 µg/mL (≈ 30.3 µM)
- pKa (Electrometric titration; read-out: pKa): 4.15
- MIC (Klebsiella pneumoniae): 7 µg/mL (≈ 16.2 µM)
- MIC (Shigella sp.): 7 µg/mL (≈ 16.2 µM)

SMILES: CCCCS(=O)(=O)OC1=C(C(=O)O)N2C(=O)C(NC(=O)Cc3cccs3)[C@H]2SC1 (stereo partly shown) [Compound 3, 7-[2-(2-thienyl)acetamido]-3-n-butylsulfonyloxy-3-cephem-4-carboxylic acid]
- MIC (Serratia marcescens): 180 µg/mL (≈ 391 µM)
- MIC (Aerobacter aerogenes): 6 µg/mL (≈ 13 µM)
- MIC (Pseudomonas aeruginosa): > 200 µg/mL
- MIC (Salmonella heidelberg): 6 µg/mL (≈ 13 µM)
- MIC (Escherichia coli): 8.8 µg/mL (≈ 19.1 µM)
- pKa (Electrometric titration; read-out: pKa): 4.75
- MIC (Klebsiella pneumoniae): 5.5 µg/mL (≈ 11.9 µM)
- MIC (Shigella sp.): 6.5 µg/mL (≈ 14.1 µM)

SMILES: Cc1ccc(S(=O)(=O)OC2=C(C(=O)O)N3C(=O)C(NC(=O)Cc4cccs4)[C@H]3SC2)cc1 (stereo partly shown) [Compound 4, 7-[2-(2-thienyl)acetamido]-3-(p-toluenesulfonyloxy)-3-cephem-4-carboxylic acid]
- MIC (Serratia marcescens): > 200 µg/mL
- MIC (Aerobacter aerogenes): 16.5 µg/mL (≈ 33.4 µM)
- MIC (Pseudomonas aeruginosa): > 200 µg/mL
- MIC (Salmonella heidelberg): 125 µg/mL (≈ 253 µM)
- MIC (Escherichia coli): 16.3 µg/mL (≈ 33 µM)
- pKa (Electrometric titration; read-out: pKa): 4.4
- MIC (Klebsiella pneumoniae): 9.3 µg/mL (≈ 18.8 µM)
- MIC (Shigella sp.): 19.5 µg/mL (≈ 39.4 µM)

SMILES: O=C(Cc1cccs1)NC1C(=O)N2C(C(=O)O)=C(OS(=O)(=O)c3ccc(F)cc3)CS[C@H]12 (stereo partly shown) [Compound 5, 7-[2-(2-thienyl)acetamido]-3-(4-fluorobenzenesulfonyloxy)-3-cephem-4-carboxylic acid]
- MIC (Serratia marcescens): > 200 µg/mL
- MIC (Aerobacter aerogenes): 12 µg/mL (≈ 24.1 µM)
- MIC (Pseudomonas aeruginosa): > 200 µg/mL
- MIC (Salmonella heidelberg): 13.5 µg/mL (≈ 27.1 µM)
- MIC (Escherichia coli): 24 µg/mL (≈ 48.1 µM)
- pKa (Electrometric titration; read-out: pKa): 4.25
- MIC (Klebsiella pneumoniae): 16.3 µg/mL (≈ 32.7 µM)
- MIC (Shigella sp.): 16.5 µg/mL (≈ 33.1 µM)

SMILES: CS(=O)(=O)OC1=C(C(=O)O)N2C(=O)C(NC(=O)[C@H](N)c3ccccc3)C2SC1 (stereo partly drawn) [Compound 6, 7-(D-phenylglycylamido)-3-methylsulfonyloxy-3-cephem-4-carboxylic acid]
- MIC (Serratia marcescens): 100 µg/mL (≈ 234 µM)
- MIC (Aerobacter aerogenes): 8.8 µg/mL (≈ 20.6 µM)
- MIC (Pseudomonas aeruginosa): > 200 µg/mL
- MIC (Salmonella heidelberg): 7 µg/mL (≈ 16.4 µM)
- MIC (Escherichia coli): 19.5 µg/mL (≈ 45.6 µM)
- pKa (Electrometric titration; read-out: pKa): 3.6
- pKa (Electrometric titration; second of two pKa values, read-out: pKa (second value)): 6.75
- MIC (Klebsiella pneumoniae): 5.5 µg/mL (≈ 12.9 µM)
- MIC (Shigella sp.): 13.6 µg/mL (≈ 31.8 µM)
